The values that follow come from PMC10065799, “High-throughput profiling of sequence recognition by tyrosine kinases and SH2 domains using bacterial peptide display” (eLife, 2023).

Square brackets hold non-standard residues; d marks the D form. pY = N[C@@H](Cc1ccc(OP(=O)(O)O)cc1)C(=O)O

One test deals with EPHB1 kinase domain. Description: pTyr-Var library bacterial peptide display kinase screen (enrichment scores). The following applies: sheet "EPHB1"; variant seq vs reference seq; bacterial peptide display enrichment. Format: biochemical, human.
Take RRIHSYRGRLW [VHL_Y112_H115R]: the “Screen (variant relative to reference peptide, measured in the pTyr-Var library screen)” value is recorded as -0.8094.
Still for that read-out and setting: the result for PLDGEYFTLQV [TP53_Y327_I332V] reads -0.1216; that for SSQTIYQRVEG [TFR2_Y23_V22I], 1.306; that for CLGNQYVNVMN [SLC3A1_Y461_R456C], -0.4562.
Same read-out and setting: to VMLENYSNLLS [ZFP69_Y109_V113L] belongs 0.4122; to KKFPDYIQIAR [SGMS2_Y59_M64R_YF], -0.1665.

Staying with this test, now noted: sheet EPHB1; effect of the variant peptide relative to its reference peptide in the pTyr-Var library screen (enrichment scores).
For LIFTNYEVGKD [GSTP1_Y112_A114V_YF], the Screen is on record as 1.043.
On the same count and under the same terms, the result for WCSNDYLGMSQ [ALAS2_Y199_R204Q] reads 0.6712; that for ENFSEYQEISV [HEMGN_Y150_A154S], 0.04896.
Still for that read-out and setting: the result for DNLSNYVFQGQ [GRIN2A_Y978_N976S] reads 0.2649.
RNLLIYTEFGK [HGD_Y166_G161R] yielded a Screen of 0.6934.
For the substance GNLLIYTKFGK [HGD_Y166_E168K], the Screen was -0.9666.
The substance LNPLFYSLRNK [OR5R1_Y290_I289F] yielded a Screen of -2.165.

In a further test the target is T1, c-Abl kinase domain (Mus musculus, UniProt P00520).
T1 sequence (P00520 242-493 limits assumed): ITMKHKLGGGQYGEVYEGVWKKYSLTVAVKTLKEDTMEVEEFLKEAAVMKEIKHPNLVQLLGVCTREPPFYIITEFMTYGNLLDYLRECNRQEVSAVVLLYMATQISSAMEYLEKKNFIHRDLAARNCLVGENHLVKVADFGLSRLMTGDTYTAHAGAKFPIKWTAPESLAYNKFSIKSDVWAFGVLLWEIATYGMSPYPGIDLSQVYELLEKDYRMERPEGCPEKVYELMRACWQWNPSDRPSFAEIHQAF
The description is as above. To be noted: fig5-data2, sheet "Abl"; Screen for the variant/reference peptide pair, pTyr-Var library. Format: biochemical.
LESETYRRLLD [KRT12_Y429_I426S] showed a Screen of -1.592.
Same read-out and setting: to FRTGHYLCNAC [GATA1_Y223_D218Y_YF] belongs 1.235; to QKPLGYFRVNL [GALE_Y104_D103G_YF], -1.351; to VCHELYNAIRD [PBRM1_Y54_T56A], -0.5103.
On to PQGVSYIFTID [DCX_Y103_R102S_YF], for which the Screen was -1.987.
On to DLSEVYKPCRK [CCDC93_Y176_R179C], for which the Screen worked out at 0.05093.
Still for that read-out and setting: the result for KFFRVYQGQQP [MUTYH_Y494_V490F] reads -1.003.
In turn, GDAMLYFPSVS [GPR143_Y177_A173D_YF] had a Screen of 0.9829.
For the substance VMAALYGRLFE [BTD_Y536_T532M_YF], the Screen is -0.5848.
The same measure, in the same setting: the result for DLGIQYKVLKP [CTNNA1_Y177_A179V] reads 0.1591; that for AVEDQYFRVDC [FHL1_Y207_C209R_YF], -2.172; that for NSFKFYMSDDI [ATRX_Y204_C200S_YF], 1.883.
The same measure, in the same setting: the result for ENFSEYQEISV [HEMGN_Y150_A154S] reads 0.8508; that for DTLLEYLENPK [CYCS_Y68_M66L], -1.313; that for AGQEGYDRLRP [RAC1_Y64_D63G], -0.6801.
Still for that read-out and setting: to PMQMPYDSRWE [PDGFRA_Y582_L580M] belongs 0.7733; to NDQANYLLNTD [ADA_Y290_S291L], -1.65; to PVQAAYQKLVA [HBB_Y131_V134L], -1.01.
With ARVANYHRDGP [CAT_Y386_Q387H], the Screen was determined as 0.869.
ALPGEYIPTVF [RAC1_Y32_F28L] came in with a Screen of -1.258.
EKQLLYLENKT [FRK_Y132_S133L] yielded a Screen of 1.576.
Same read-out and setting: to SLMNQYVNKEF [RAB7A_Y28_K32E] belongs 1.901; to “Ac-QSLEKS[pY]ELLDGG-NH2 [ACTB_Y240_P243L]”, -1.856.
Substance GRTGHYLCNAC [GATA1_Y223_D218G] showed a Screen of 0.2005.
FDNSVYQKTTE [LDLR_Y828_P826S]: the Screen stood at 1.184.
On the same count and under the same terms, to REGAKYVSHDA [ASS1_Y113_G117D] belongs 1.12; to GNLLIYTKFGK [HGD_Y166_E168K], 0.592; to APAHKYHGGGG [HBD_Y146_L142P], 0.5925.
The substance GRSTFYWPSPR [GAGE12J_Y10_R13S_YF] yielded a Screen of -1.338.
Still for that read-out and setting: to TDHLQYFDSNK [ARAP1_Y359_R358Q] belongs 1.336; to SHSMRYFSTAV [HLA-C_Y31_D33S], 0.4242; to DLAHKYHGGGG [HBB_Y146_A141D], -0.5192.

Still in this test, the particulars now being: sheet "Abl"; effect of variant peptide relative to its reference peptide in pTyr-Var library screen (enrichment).
As for ESMQSYDLDFP [UNC13B_Y243_D238E_YF], the Screen amounted to 0.2086.
The same measure, in the same setting: to TVLWQYTGTRP [UGT1A1_Y337_R336Q] belongs 0.7115; to LTDLRYKVSGP [TTN_Y22641_L22646P], -1.764.
Substance TFGNLYGSRKQ [YIPF7_Y59_A54T_YF] showed a Screen of -3.299.
On to KPGLIYNKVNP [SPRED3_Y72_V71I], for which the Screen is -0.1763.
Still for that read-out and setting: to TLLPDYEDEEE [ZNF830_Y159_S154T] belongs 2.994; to TTKGAYSLSVR [YES1_Y194_I198V], 2.19.
The substance ETCLAYMEKRI [TEKT1_Y118_R119M] registered a Screen of -0.666.
KACKHYLTKRT [ZBTB5_Y118_T121K] came in with a Screen of -3.546.
VHKKGYNKLNQ [ZNF676_Y98_E96K] showed a Screen of 1.586.
Same read-out and setting: to FNDSAYNQQLI [ZPLD1_Y198_T197A_YF] belongs 1.136.
Still for that read-out and setting: to MKGEFYRFLAE [YWHAG_Y131_D129E_YF] belongs 2.42.
The same measure, in the same setting: the result for TVLWLYTGTRP [UGT1A1_Y337_R336L] reads 0.619; that for KSVEEYANCHL [TF_Y593_P589S], 0.8616; that for VLALWYFFLTN [ZDHHC23_Y127_H132N_YF], -3.327.
With KNSSIYVVANI [VNN1_Y134_N131S], the Screen stood at 4.539.
The same measure, in the same setting: to KKFPDYIQIAR [SGMS2_Y59_M64R_YF] belongs 1.322.

The test system of another test is Fer kinase domain. The test is described as above. The format is biochemical, mouse. To be noted: sheet "Fer"; value of the variant peptide against its reference peptide in the pTyr-Var library screen with Fer.
As for EGNEQYEGFCV [GRIA3_Y451_R450Q_YF], the Screen was 2.326.
Still for that read-out and setting: the result for SDPIIYTLENV [ADGRE1_Y534_I539V] reads -0.559; that for LTMAPYSSVSV [FAM81A_Y24_L29V], 0.5529.
On the same count and under the same terms, to TESALYGCTVV [KIAA1804_Y724_L729V] belongs 0.07488; to KLPDAYEPLIL [G6PD_Y437_R439P], 1.978.
On the same count and under the same terms, to PNKAVYTKMMT [G6PD_Y401_E398K] belongs -3.207; to VASMFYTLVIP [OR8K3_Y277_I275M], 0.3514; to GHLFAYNWISI [BEST1_Y227_D228N_YF], -1.638.
RREWFYEVIIA [BACE1_Y260_V265A_YF] displayed a Screen of -1.406.
In turn, KGNMFYENSFA [EGFR_Y113_R108K_YF] yielded a Screen of -0.4996.

The same test, now with this note: sheet "Fer"; variant peptide relative to its reference peptide, pTyr-Var library screen enrichment.
ACCLLYHGDVV [TUBA4A_Y319_R320H]: the Screen turned out to be 1.239.
Same read-out and setting: to HNELFYEAAEH [VANGL1_Y345_E347A_YF] belongs 1.287; to SNKELYEKFMI [TTN_Y32175_T32171N_YF], 0.5633.

A further test addresses c-Src kinase domain (Homo sapiens, UniProt P12931). The test is described as above. The following applies: sheet "Src"; effect of the variant peptide relative to its reference peptide in the pTyr-Var library screen. Format: biochemical.
Regarding LITTLYSGFLG [KCNQ1_Y267_I268S], the Screen worked out at 0.982.
Take SDPIIYTLENV [ADGRE1_Y534_I539V]: the Screen is given as -0.05563.
Regarding VMAALYGRLFE [BTD_Y536_T532M_YF], the Screen is on record as 0.294.
TESALYGCTVV [KIAA1804_Y724_L729V] had a Screen of -0.09726.
Consider RRNEIYEIKVD [LGR5_Y387_H383R], for which the Screen is -0.9028.
As to SNKLTYGTVVF [ACOX1_Y275_M278V], the Screen is recorded as 0.3111.
The same measure, in the same setting: to QMVRMYASSFM [AVPR2_Y124_G122R_YF] belongs -2.32.
LNECHYGALIG [BPGM_Y92_R90C] gave a Screen of 2.509.
In turn, PNKAVYTKMMT [G6PD_Y401_E398K] registered a Screen of -2.964.
On the same count and under the same terms, the result for RNLLIYTEFGK [HGD_Y166_G161R] reads -0.2684; that for GNLLIYTKFGK [HGD_Y166_E168K], -1.556.
Same read-out and setting: to KLADIYQAELR [GFAP_Y116_V115I] belongs 1.355.

Staying with this test, now noted: sheet "Src"; variant peptide versus its reference peptide in the pTyr-Var library screen.
For the substance PNRILYGDFWQ [MYH7_Y715_R719W], the Screen is listed as -0.3786.
Still for that read-out and setting: to LNPLVYTLRNA [OR4C12_Y285_V283L] belongs 0.901; to MSRDVYSTDCF [NTRK2_Y702_Y706C_YF], -0.1963; to RRIHSYRGRLW [VHL_Y112_H115R], -2.396.
Still for that read-out and setting: the result for ACCLLYHGDVV [TUBA4A_Y319_R320H] reads -0.1128; that for PLDGEYFTLQV [TP53_Y327_I332V], -0.8668; that for DWRQEYVLNEP [TGM1_Y267_S272P], 0.4859.
HNELFYEAAEH [VANGL1_Y345_E347A_YF]: the Screen was 1.947.
Substance EDKFMYSEFPQ [PTEN_Y240_F241S] came in with a Screen of 0.2043.
Still for that read-out and setting: to TFGNLYGSRKQ [YIPF7_Y59_A54T_YF] belongs 0.7296; to PFTDPYFDFEI [ZC3H18_Y371_A368T_YF], 0.4384; to GVLDIYGFDIL [MYO1A_Y382_E385D], 0.6089.
Still for that read-out and setting: the result for SSQTIYQRVEG [TFR2_Y23_V22I] reads 1.445; that for DWQQEYVLNES [TGM1_Y267_R264Q], 1.018.
In turn, SNKELYEKFMI [TTN_Y32175_T32171N_YF] showed a Screen of 0.8077.
Still for that read-out and setting: to VFFDLYGGEKF [PTPN11_Y66_D61V_YF] belongs -0.4607; to PRNLIYFGEHP [TRPV6_Y201_C197R], -3.508; to PLDGEYFSLQI [TP53_Y327_T329S], 0.4244.
PLDGEYFTHQI [TP53_Y327_L330H] came in with a Screen of -1.246.
Substance GPQSLYNGLVA [UCP2_Y79_R76Q] gave a Screen of 1.82.
Still for that read-out and setting: to ETELPYQELQG [TYROBP_Y91_S89L] belongs 0.7128; to LNPLFYSLRNK [OR5R1_Y290_I289F], -4.245.
